Measured values as given in patent publication US6608076B1, “Camptothecin derivatives and polymeric conjugates thereof” (priority 2002, dated 2003).

Test system: human mammary carcinoma (MX-1)
Assay: Efficacy against subcutaneous human mammary carcinoma (MX-1) xenograft in nude mice
Type: in vivo
Description: General Procedures. All reactions were run under an atmosphere of dry nitrogen or argon. Commercial reagents were used without further purification. All PEG compounds were 40 kDa and were dried under vacuum or by azeotropic distillation from toluene prior to use. ^13C NMR spectra were obtained at 75.46 MHz using a Varian Mercurye® 300 NMR spectrometer and deuterated chloroform as the solvent unless otherwise specified. Chemical shifts (δ) are reported in parts per million (ppm) downfield from tetramethylsilane (TMS). All PEG conjugated compounds were dissolved in saline for injection prior to in vivo drug treatments and were given as their camptothecin equivalents (absolute amount of camptothecin given). HPLC method. The reaction mixtures and the purity of intermediates and final products were monitored by a Beckman Coulter System Gold® HPLC instrument employing a ZOBAXO® 300 SB C-8 reversed phase column (150×4.6 mm) or a Phenomenex Jupiter® 300A C18 reversed phase column (150×4.6 mm) with a multiwavelength UV detector, using a gradient of 30-90% of acetonitrile in 0.5% trifluoroacetic acid (TFA) at a flow rate of 1 mL/min.
The efficacy of open-form camptothecin analogs against a subcutaneous human mammary carcinoma (MX-1) grown in nude mice was determined as follows. Following at least one week of acclimation, tumors were established by implanting small tumor fragments from donor mice into a single subcutaneous site, on the left axillary flank region of nude mice. The tumor implantation site was observed twice weekly and measured once palpable. The tumor volume for each mouse was determined by measuring two dimensions with calipers and calculated using the formula: tumor volume=(length×width^2). When tumors reached the average volume of approximately 75 mm^3, the mice were divided into their experimental groups, which consists of untreated controls, PEG40,000-ala-20(S)-Camptothecin, compound 8, and compound 18.
The mice were sorted to evenly distribute tumor size, grouped into 4 to 5 mice/cage, and ear punched for permanent identification. Drugs were dosed intravenously via the tail vein as a single dose (Qd1). Mouse weight and tumor sizes were measured at the beginning of study and twice weekly through week 5. The overall growth of tumors was calculated as the mean tumor volume at one week following the end of the treatment. A percent treatment over control (T/C) value was also calculated when the control group's median tumor size reached approximately 800-1100 mm^3 and again at one week following treatment. The T/C value in percent is a non-quantitative indication of anti-tumor effectiveness.

Substance: PEG40,000-ala-20(S)-Camptothecin
- Difference in antitumor activity between the three compounds (at equivalent doses): no significant (P<0.05) difference in the antitumor activity
- Tumor Regression at Day 25 (#/grp) (i.v. Qd1 (24 mg/kg/dose), Day 25): 5/5
- T/C (%) At 1000 mm^3 (i.v. Qd1 (24 mg/kg/dose), median tumor volume treated vs control when control median reached approx. 1000 mm^3, T/C < 42% considered significant): 1.4%
- Tumor volume as compared to control mice (i.v. single dose, statistical comparison, P<0.05): significantly (P<0.05) smaller tumor volumes
- Tumor Volume (mean ± sem) Day 21 (intravenous single dose Qd1 (24 mg/kg/dose, camptothecin equivalents), established tumors ~75 mm^3, Day 21): 15 ± 5 mm^3
